Measurements taken from EPA's aquatic toxicity sets.

System: Pimephales promelas
Assay: 96 h LC50 (-log10 mol/L); higher = more toxic

Structure (SMILES)	96 h LC50 (-log10 mol/L)
CCOP(=S)(Oc1ccc([N+](=O)[O-])cc1)c1ccccc1 (stereo not drawn)	6.21
CC(C)=CCC/C(C)=C/CO	4.59
CC(C)(c1cc(Br)c(O)c(Br)c1)c1cc(Br)c(O)c(Br)c1	5.83
BrC(Br)c1ccccc1C(Br)Br	5.99
Oc1ccccc1Cl	4.02
CN(C)N=O	1.9
CCOC(=O)C(C)N(C(=O)c1ccccc1)c1ccc(Cl)c(Cl)c1 (stereo not drawn)	5.81
CCN(CC)c1ccc(C=O)cc1	3.87
Nc1ccc(F)c(C(F)(F)F)c1	3.77
CC12CCC(C(Br)C1=O)C2(C)C (stereo not drawn)	3.53
CCNc1nc(NC(C)(C)C)nc(OC)n1	3.66
Cc1cc(O)c([N+](=O)[O-])cc1[N+](=O)[O-]	4.79
Oc1c(Cl)cc(Cl)c(Cl)c1Cc1c(O)c(Cl)cc(Cl)c1Cl	7.29
CC(C)(C)CCN	2.23
O=C(O)C(Cl)(Cl)Cl	1.91
Cc1c(Cl)cccc1NC=O	3.56
CCOC(=O)c1ccccc1O	3.92
CCOC(=O)C(C)Oc1ccc(Oc2nc3ccc(Cl)cc3o2)cc1 (stereo not drawn)	4.71
CC(O)C#N (stereo not drawn)	4.9
ClCc1ccccc1	4.4
Cl[C@@H]1CCCC[C@H]1Cl	3.92
COc1cccc(OC)c1C	3.88
O=S(Cc1ccccc1)Cc1ccccc1	3.46
O=P(c1ccccc1)(c1ccccc1)c1ccccc1	3.71

Structure (SMILES)	96 h LC50 (-log10 mol/L)
COc1ccc(C(C)=O)c(OC)c1OC	3.02
C#CCN(CC#C)CC#C	2.65
O[C@@H]1CCCC[C@H]1c1ccccc1	3.6
COc1cc(Cl)c(Cl)cc1O	4.63
BrCC1CCCCO1 (stereo not drawn)	2.94
C#CC(O)(c1ccccc1)c1ccccc1	4.27
N#Cc1cccc(C(F)(F)F)c1	3.56
S=c1[nH]c2cc(Cl)ccc2s1	4.8
Cc1ncc[nH]1	2.46
CCOC(=O)CCC(=O)OCC	3.1
CC1=CCC(=C(C)C)CC1	5.05
O[C@H]1C[C@@H]2CC[C@H]1C2	2.69
CN(C)N	3.88
CC(N)CN (stereo not drawn)	1.82
CNC(=O)ON=C(SC)C(=O)N(C)C	4.51
CCC(C)C(C)C=O (stereo not drawn)	3.85
CCOC(=O)[C@H](C)N(C(=O)c1ccccc1)c1ccc(Cl)c(Cl)c1	5.68
O=S1OCC2C(CO1)C1(Cl)C(Cl)=C(Cl)C2(Cl)C1(Cl)Cl (stereo not drawn)	8.48
Cc1c(N)cccc1[N+](=O)[O-]	3.48
CCN(CC)c1ccc(C=O)c(O)c1	4.56
C=CC(C)(O)CC/C=C(\C)CCC=C(C)C (stereo not drawn)	5.19
CN(C)C(=O)C(c1ccccc1)c1ccccc1	3.7
CC1CNCCN1 (stereo not drawn)	1.65
Cc1ccc([N+](=O)[O-])c(N)c1[N+](=O)[O-]	4.21

Structure (SMILES)	96 h LC50 (-log10 mol/L)
CCCCCCCCOC(=O)C(C)O (stereo not drawn)	3.93
Cc1cc(Cl)ccc1OCCCC(=O)O	4.26
c1ccc(-c2cccc(-c3ccccc3)n2)cc1	6.04
C1CN2CCN1CC2	1.81
Cc1c([N+](=O)[O-])cc(N)cc1[N+](=O)[O-]	4.46
CCOC(=O)CC(S)C(=O)OCC (stereo not drawn)	3.77
Cc1c([N+](=O)[O-])ccc(N)c1[N+](=O)[O-]	4.25
CCCCOC(=O)c1ccc(C(=O)OCCCC)cc1	5.67
O=C(O)C(Br)Br	3.5
C#CC(C)(O)CCC(C)C (stereo not drawn)	3.46
ClCCCCCCl	3.75
CC(C)C(C(=O)OC(C#N)c1cccc(Oc2ccccc2)c1)c1ccc(Cl)cc1 (stereo not drawn)	8.14
O=[N+]([O-])C(CO)(CO)CO	2.73
Cc1cocn1	1.78
CC(C)Oc1cccc(NC(=O)c2ccccc2C(F)(F)F)c1	4.83
Cc1cc(C)c([N+](=O)[O-])cc1[N+](=O)[O-]	4.39
COc1ccc(C(c2ccc(OC)cc2)C(Cl)(Cl)Cl)cc1	7.61
ClC1=C(Cl)C2(Cl)C3C(Cl)C=CC3C1(Cl)C2(Cl)Cl (stereo not drawn)	6.75
O=C(Oc1ccccc1)c1ccccc1O	5.28
OC(c1ccc(Cl)cc1)(c1ccc(Cl)cc1)C(Cl)(Cl)Cl	5.86
CCC(=O)c1ccc(N)cc1	3.01
Cc1cccc([N+](=O)[O-])c1N	3.8
O=Cc1cc([N+](=O)[O-])ccc1Cl	4.67
CCNS(=O)(=O)C(F)(F)C(F)(F)C(F)(F)C(F)(F)C(F)(F)C(F)(F)C(F)(F)C(F)(F)F	6.45

Structure (SMILES)	96 h LC50 (-log10 mol/L)
CCOP(=S)(OCC)SCCSCC	4.85
ClCCCCCl	3.39
CCN(CC)C1CCCCC1	3.86
O=Cc1cccc(Oc2ccc(Cl)c(Cl)c2)c1	5.95
CCNCCO	1.78
Cc1ccc(S(=O)(=O)n2ccnc2)cc1	3.73
C=C(C)C(=O)OCCOCC	3.76
C=C[C@@]1(C)CC[C@H]2C(=CC[C@@H]3[C@]2(C)CCC[C@@]3(C)C(=O)O)C1	5.54
Cc1ccccc1F	3.75
O=C(O)c1c(Cl)ccc(Cl)c1Cl	4.42
COc1ccc(OC)cc1	3.07
C=C(CCl)CCl	5.82
C1CCOC1	1.52
CCN(CC)N=O	2.12
CCNc1cccc(C)c1	3.44
CCOC(CN(C)CC(OCC)OCC)OCC	2.62
N#Cc1ccccc1C(F)(F)F	3.61
CC(Cl)(Cl)C(=O)O	2.69
CC(C)OC(C)C	2.11
C1C2CC3CC1CC(C2)C3	5.68
CNC(=O)Oc1ccc(N(C)C)c(C)c1	5.03
C=C(C)C(=O)OCC1CCCO1 (stereo not drawn)	3.69
COc1cc(C=O)cc(Br)c1O	3.59
CC(=O)/C=C/C1=C(C)CCCC1(C)C	4.58

Structure (SMILES)	96 h LC50 (-log10 mol/L)
CC12CCC(CC1)C(C)(C)O2	3.18
COP(=O)(O)OC	3.85
ClCCOCOCCCl	2.97
CC(C)[C@@H]1CC[C@@H](C)C[C@H]1O	3.92
C#CC(C)(O)c1ccccc1 (stereo not drawn)	3.11
CCCCO	1.59
COC(=O)c1ccc(C(=O)OC)c(N)c1	4.37
O=Cc1cccc(C(F)(F)F)c1	5.28
C=CCNc1ccccc1	3.57
OCCOc1ccccc1	2.6
N#Cc1c(Cl)cccc1Cl	4.42
CCCCCC(C)=O	2.94
C1OCOCO1	1.18
OCc1ccoc1	2.29
CC(C)(C)c1ccc(C(N)=O)cc1	3.75
CCCSP(=O)(OCC)Oc1ccc(Br)cc1Cl (stereo not drawn)	6.64
CC1(C)CC(=O)CC(=O)C1	1.09
CCC(C)c1cccc(OC(=O)N(C)Sc2ccccc2)c1 (stereo not drawn)	6.91
CS(=O)(=O)Oc1ccc(Cl)cc1Cl	4.74
Nc1ccc(-c2ccc(N)c(Cl)c2)cc1Cl	5.08
CCC(C)n1c(=O)[nH]c(C)c(Br)c1=O (stereo not drawn)	3.15
NCCCN1CCN(CCCN)CC1	1.81
CC(=O)O	2.86
Nc1ccc(Br)cn1	2.99

Structure (SMILES)	96 h LC50 (-log10 mol/L)
Nc1ccccc1C(=O)c1ccc(Cl)cc1	5.04
CC(C)(C)CC(C)(C)N	3.72
COP(=S)(OC)Oc1ccc(Sc2ccc(OP(=S)(OC)OC)cc2)cc1	4.14
CC(C)(C)c1ccc(CSc2cnn(C(C)(C)C)c(=O)c2Cl)cc1	8.2
Nc1ccc([N+](=O)[O-])cc1Cl	3.93
CCN1C(=O)CC(=O)N(CC)C1=S	1.65
Oc1ccc(Cl)cc1	4.46
c1ccc(SSc2ccccc2)cc1	6.3
COc1ccc(C=O)c(OC)c1	3.92
Clc1cccc(C(Cl)(Cl)Cl)n1	4.37
CC(C)C(C(=O)OC(C#N)c1cccc(Oc2ccccc2)c1)c1ccc(OC(F)F)cc1 (stereo not drawn)	8.98
ClC1=C(Cl)[C@]2(Cl)C3C(Cl)C(Cl)CC3[C@@]1(Cl)C2(Cl)Cl (stereo partly drawn)	6.82
CCSCCCCSCC	4.47
CC(Oc1cc(Cl)c(Cl)cc1Cl)C(=O)O (stereo not drawn)	4.2
CC(C)(C)SC(C)(C)C	3.7
CC(C)(O)C(Cl)(Cl)Cl	3.12
OCCOCCO	0.15
ClC1(Cl)C2(Cl)C3(Cl)C4(Cl)C(Cl)(Cl)C5(Cl)C3(Cl)C1(Cl)C5(Cl)C24Cl (stereo not drawn)	3.62
C#CC1(O)CCCCC1	2.69
CCOC(=O)C(F)(F)F	1.15
O=C(Oc1ccccc1)c1ccccc1C(=O)Oc1ccccc1	6.6
NNC(N)=S	3.64
CC(C)Nc1nc(Cl)nc(NC2CC2)n1	4.8
